Data reported in US9376408B2, “Therapeutic thiazolidinone compounds” (Merck Sharp & Dohme Corp., priority 2012, dated 2016).
Like-named read-outs stand apart in the source and are kept apart here.

Assays:
[1] = target: T1, endogenous CETP from serum (Homo sapiens, UniProt P11597); assay: RTA assay in 95% human serum (CETP-catalyzed CE and TG transfer, endogenous CETP from serum); format: biochemical
T1 construct: yielding a concentration of approximately 15 nM endogenous CETP in the assay; from tissue; host or cells: human serum
T1 sequence (P11597 18-493): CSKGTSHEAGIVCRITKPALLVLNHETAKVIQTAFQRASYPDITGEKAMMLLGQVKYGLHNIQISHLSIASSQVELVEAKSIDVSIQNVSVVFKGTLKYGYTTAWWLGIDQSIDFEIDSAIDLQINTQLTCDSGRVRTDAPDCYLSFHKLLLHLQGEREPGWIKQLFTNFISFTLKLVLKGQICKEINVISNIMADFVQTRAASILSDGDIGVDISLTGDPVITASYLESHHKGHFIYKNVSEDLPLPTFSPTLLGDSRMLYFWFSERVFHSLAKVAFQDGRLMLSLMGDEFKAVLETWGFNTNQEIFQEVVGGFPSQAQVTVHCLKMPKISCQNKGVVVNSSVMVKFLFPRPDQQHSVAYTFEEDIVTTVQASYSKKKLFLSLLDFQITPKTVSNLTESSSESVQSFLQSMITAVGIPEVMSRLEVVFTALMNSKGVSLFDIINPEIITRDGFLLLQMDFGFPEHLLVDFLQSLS
Experimental: In Vitro Radioactive Assays of CETP-Catalyzed CE and TG Transfer (RTA Assay)
Reagents and sources are: [3H] cholesteryl oleate (GE #TRK.886), [3H] Triolein (Perkin-Elmer NET-431), Butylated hydroxyl toluene (Aldrich, #D4740-4), DOPC (Sigma, # P6354), Sodium Bromide (Fisher scientific #S255-500), PEG 8000 (Fisher, #BP233-1), and human HDL (Intracel Corp #RP-036).
An in vitro assay for determining IC50's to identify compounds that inhibit CETP transfer activity is performed based on a modification of a published method (Morton and Zilversmit, (1981) A plasma inhibitor of triglyceride and cholesteryl ester transfer activities, J. Biol. Chem. 256(23), 11992-11995). The ability of inhibitors to alter CETP activity is performed using two different assays: one using recombinant CETP and one using an endogenous plasma source of CETP. Both assays measure the transfer of [3H] cholesteryl oleate or [3H] triolein from exogenous LDL to HDL.
Radiolabeled donor particles are generated by first combining 100 μl of 200 μM butylated hydroxyl toluene in CHCl3, 216 μL of 21.57 mM DOPC in EtOH, and either 500 μCi [3H]-triolein (Perkin Elmer #NET-431) or 500 μCi [3H]-cholesteryl oleate (GE #TRK886) in a glass tube. Reagents are mixed, dried under nitrogen, and then resuspended in 2 mL of 50 mM Tris, 27 μM EDTA at pH 7.4. After a brief vortex, the solution is sonicated until clear and mixed with 20 mL of fresh human serum. The mixture is incubated overnight at 37° C. The [3H] labeled LDL substrate is separated at 1.063 g/ml density by sequential ultracentrifugal flotation in NaBr according to the method of Havel, Eder, et al., 1955, and Chapman, Goldstein, et al., 1981. Once isolated the particles are dialyzed 3× in CETP buffer (50 mM Tris, pH 7.4, 100 mM NaCl, 1 mM EDTA). Human HDL is purchased from Intracel and used as the acceptor particles.
Transfer assays are performed in a 96-well v-bottom polypropylene plate. For the RTA using recombinant CETP (2% RTA), an assay cocktail is prepared with the final concentrations 128 μg/mL HDL, 20 nM rCETP, 2% human serum, and 1×CETP buffer. 1 μL of each test compound diluted in DMSO is added to 47 μL of assay cocktail per well and incubated at 37° C. for 1 hour. To initiate the transfer reaction, 2 μL radiolabeled LDL is added. After an additional 60 min of incubation at 37° C., the transfer action is terminated by precipitation of LDL with an equal volume of 20% W/V PEG 8000. The plates are centrifuged at 2000 rpm for 30 minutes at 4° C. A 40 μL aliquot of the HDL-containing supernatant is transferred to a Packard Optiplate™ with 200 μL of MicroScint™ 20. After mixing, plates are counted by liquid scintillation. Counts present in the supernatant for blanks (wells containing only HDL acceptor, CETP buffer and DMSO) are subtracted from those containing test compounds and used to correct for non-specific transfer.
For the transfer assay using endogenous CETP from serum (95% RTA), the same procedure is used except that human serum is added such that a final concentration of serum of 95% of the total assay volume is achieved, yielding a concentration of approximately 15 nM endogenous CETP in the assay. This is then combined with HDL and CETP buffer and the reaction proceeds as above and is terminated as described.
Comparison of the counts of samples with inhibitors to an uninhibited (DMSO only) positive control yield a percent inhibition. A plot of percent inhibition vs. log of inhibitor concentration, fit to a Sigmoidal 4 parameter equation is used to calculate IC50.
Starting materials are commercially available or are made using known procedures or as shown below. The examples may be synthesized using the general schemes provided below. Synthetic intermediates for making the compounds are made as described below. The data reported for the examples below were generally obtained using the RTA assay in 95% human serum. […]

[2] = patients on anacetrapib plus baseline statin compared with patients treated with just a statin; cited from earlier work

Compound | IC50 ([1]; read-out: IC50) | other results
COc1ccc(-c2ccc(C(=O)O)cc2C)cc1-c1ccc(C(F)(F)F)cc1CN1C(=O)S[C@H](c2cc(C(F)(F)F)cc(C(F)(F)F)c2)[C@@H]1C [Example 1, 2″-(((4S,5R)-5-(3,5-bis(trifluoromethyl)phenyl)-4-methyl-2-oxothiazolidin-3-yl)methyl)-4′-methoxy-2-methyl-4″-(trifluoromethyl)-[1,1′:3′,1″-terphenyl]-4-carboxylic acid] | – | IC50 ([1]; read-out: RTA (95% HS)): 62 nM
COc1ccc(-c2ccc(C(=O)O)cc2C)cc1-c1ccc(C(F)(F)F)nc1CN1C(=O)S[C@H](c2cc(C(F)(F)F)cc(C(F)(F)F)c2)[C@@H]1C [Example 2, 3′-[2-({(4S,5R)-5-[3,5-bis(trifluoromethyl)phenyl]-4-methyl-2-oxo-1,3-thiazolidin-3-yl}methyl)-6-(trifluoromethyl)pyridin-3-yl]-4′-methoxy-2-methylbiphenyl-4-carboxylic acid] | 39 nM | –
COc1ncc(-c2ccc(C(=O)O)cc2C)cc1-c1ccc(C(F)(F)F)nc1CN1C(=O)S[C@H](c2cc(C(F)(F)F)cc(C(F)(F)F)c2)[C@@H]1C [Example 3, 4-[2′-({(4S,5R)-5-[3,5-bis(trifluoromethyl)phenyl]-4-methyl-2-oxo 1,3-thiazolidin-3-yl}methyl)-2-methoxy-6′-(trifluoromethyl)-3,3′-bipyridin-5-yl]-3-methylbenzoic acid] | 106 nM | –
COc1ccc(CCC(=O)O)cc1-c1ccc(C(F)(F)F)nc1CN1C(=O)S[C@H](c2cc(C(F)(F)F)cc(C(F)(F)F)c2)[C@@H]1C [Example 4, 3-{3-[2-({(4S,5R)-5-[3,5-bis(trifluoromethyl)phenyl]-4-methyl-2-oxo-1,3-thiazolidin-3-yl}methyl)-6-(trifluoromethyl)pyridin-3-yl]-4-methoxyphenyl} propanoic acid] | 300 nM | –
COc1ncc(-c2c(C)cc(C(=O)O)cc2C)cc1-c1ccc(C(F)(F)F)nc1CN1C(=O)S[C@H](c2cc(C(F)(F)F)cc(C(F)(F)F)c2)[C@@H]1C [Example 5, 4-[2′-({(4S,5R)-5-[3,5-bis(trifluoromethyl)phenyl]-4-methyl-2-oxo-1,3-thiazolidin-3-yl}methyl)-2-methoxy-6′-(trifluoromethyl)-3,3′-bipyridin-5-yl]-3,5-dimethylbenzoic acid] | 25 nM | –
COc1ccc([C@H]2CC[C@H](C(=O)O)CC2)cc1-c1ccc(C(F)(F)F)nc1CN1C(=O)S[C@H](c2cc(C(F)(F)F)cc(C(F)(F)F)c2)[C@@H]1C [Example 6, trans-4-{3-[2-({(4S,5R)-5-[3,5-bis(trifluoromethyl)phenyl]-4-methyl-2-oxo-1,3-thiazolidin-3-yl}methyl)-6-(trifluoromethyl)pyridin-3-yl]-4-methoxyphenyl} cyclohexanecarboxylic acid] | 257 nM | –
COc1ncc(-c2ccc(C(=O)O)cc2C)cc1-c1ccc(C(F)(F)F)cc1CN1C(=O)S[C@H](c2cc(C(F)(F)F)cc(C(F)(F)F)c2)[C@@H]1C [Example 7, 4-{5-[2-({(4S,5R)-5-[3,5-bis(trifluoromethyl)phenyl]-4-methyl-2-oxo-1,3-thiazolidin-3-yl}methyl)-4-(trifluoromethyl)phenyl]-6-methoxypyridin-3-yl}-3-methylbenzoic acid] | 117 nM | –
COc1cc(F)c(C(C)C)cc1-c1ccc(C(F)(F)F)cc1CN1C(=O)O[C@H](c2cc(C(F)(F)F)cc(C(F)(F)F)c2)[C@@H]1C [anacetrapib] | – | decrease of LDL-C [2]: 40%; increase of HDL-C [2]: 138%
